In patent US20120070508A1, “Methods, Compositions, and Devices for Managing Chlorine Dioxide Release” (DHARMA IP, LLC, priority 2010, published 2012):

Assay: Enhanced solubility of beta-cyclodextrin in water containing ClO2 (slurry test)
Conditions: 100 g slurry, 5% (w/w) in 8000 ppm ClO2 vs ultrapure water, 200 rpm, 3 days

Compound: OC[C@H]1O[C@@H]2O[C@H]3[C@H](O)[C@@H](O)[C@@H](O[C@H]4[C@H](O)[C@@H](O)[C@@H](O[C@H]5[C@H](O)[C@@H](O)[C@@H](O[C@H]6[C@H](O)[C@@H](O)[C@@H](O[C@H]7[C@H](O)[C@@H](O)[C@@H](O[C@H]8[C@H](O)[C@@H](O)[C@@H](O[C@H]1[C@H](O)[C@H]2O)O[C@@H]8CO)O[C@@H]7CO)O[C@@H]6CO)O[C@@H]5CO)O[C@@H]4CO)O[C@@H]3CO [beta-cyclodextrin]
- weight of undissolved dried beta-cyclodextrin, less than control slurry: 0.32 g
